PubChem BioAssay (NCI)
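Cells were grown in 96-well plates and exposed to each compound for 48 hours at five concentrations; endpoints were interpolated linearly between bracketing concentrations, or set to the highest concentration if not reached. GI50: concentration for 50% inhibition of growth. TGI marks complete inhibition of growth.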

Key:
Experiment in all cases: growth of human tumour cells (NCI), 48 h
HL-60(TB) leukemia = tested on: HL-60(TB) leukemia
A498 renal = tested on: A498 renal
CCRF-CEM leukemia = tested on: CCRF-CEM leukemia
786-0 renal = tested on: 786-0 renal
HS 578T breast = tested on: HS 578T breast
SW-620 colon = tested on: SW-620 colon
LOX IMVI melanoma = tested on: LOX IMVI melanoma
OVCAR-3 ovarian = tested on: OVCAR-3 ovarian
UACC-62 melanoma = tested on: UACC-62 melanoma
BT-549 breast = tested on: BT-549 breast
NCI-H226 lung = tested on: NCI-H226 lung
NCI/ADR-RES ovarian = tested on: NCI/ADR-RES ovarian

Row | SMILES | TGI (HL-60(TB) leukemia) [µM] | GI50 (A498 renal) [µM] | TGI (A498 renal) [µM] | TGI (CCRF-CEM leukemia) [µM] | TGI (786-0 renal) [µM] | TGI (HS 578T breast) [µM] | TGI (SW-620 colon) [µM] | TGI (LOX IMVI melanoma) [µM] | TGI (OVCAR-3 ovarian) [µM] | TGI (UACC-62 melanoma) [µM] | TGI (BT-549 breast) [µM] | TGI (NCI-H226 lung) [µM] | TGI (NCI/ADR-RES ovarian) [µM] | GI50 (HL-60(TB) leukemia) [µM]
1 | O=C1CNc2cc(N3CCN(c4cccc(C(F)(F)F)c4)CC3)ccc2N1 | > 83.5 | 24.7 | > 100 | > 100 | > 100 | > 100 | > 100 | > 100 | > 100 | > 86.1 | > 100 | > 100 | > 91.1 | 
2 | CC(=O)NC1CCC(NC(=O)OC(C)(C)C)C(NC(=O)OC(C)(C)C)C1 (configuration not stated) | > 100 |  | > 100 | > 100 | > 100 | > 100 | > 100 | > 100 | > 100 | > 100 | > 100 | > 100 | > 100 | 
3 | CNC(=O)CNC(=O)CCC(=O)N(C)C | > 100 |  | > 100 | > 100 | > 100 | > 100 | > 100 | > 100 | > 100 | > 100 | > 100 | > 100 | > 100 | 
4 | C=CC1(CBr)CCC(C(C)(C)Br)O1 (configuration not stated) | 0.893 |  | 33.5 | 6.51 | 6.56 | 39.6 | 10.5 | 4.34 | 22.6 | 22.3 | 30.4 | 46.7 | 30.7 | 
5 | COc1ccc(CN=C2Nc3ccncc3S(=O)(=O)N2c2ccccc2)cc1 | 36.8 |  | > 100 | 82.4 | > 100 | > 100 | > 100 | > 100 | > 100 | > 100 | 89.4 | > 100 | > 100 | 
6 | CC(C)(N=NC(C)(C)C1=NCCN1)C1=NCCN1 | > 100 |  | > 100 | > 100 | > 100 | > 100 | > 100 | > 100 | > 100 | > 100 | > 100 | > 100 | > 100 | > 100
7 | O=[N+]([O-])/C(C(Cl)=C(Cl)Cl)=C(/Sc1ccccc1)N1CCOCC1 | 4.51 |  | 28.1 | 4.66 | 4.51 | 59.5 | 6.96 | 3.04 | 8.87 | 14 | 15 | 26.5 | 38.4 | 
8 | CCC(/C=C/c1ccccc1)=N\NC(=S)N/N=C(/C=C/c1ccccc1)CC | 62.7 |  | 59.8 | > 100 | > 100 | > 100 | > 100 | > 100 | > 100 | > 100 | > 100 | > 100 | > 100 | 
9 | COC(=O)CC1(O)C(C=C(C)C)C(C(=O)OC)C(=O)C(C(=O)OC)C1C(=O)OC (configuration not stated) | > 100 |  | > 100 | > 100 | > 100 | > 100 | > 100 | > 100 | > 100 | > 100 | > 100 | > 100 | > 100 | 
10 | COC(=O)c1cc(C)ccc1CC(Cc1ccccc1C)C(=O)OC (configuration not stated) | 36.3 |  | > 100 | 44.3 | > 100 | > 100 | > 100 | 28.1 | > 100 | > 100 | > 100 | > 100 | > 100 | 
